Test [1] concerns female hooded-Lister rats. The test can be described thus: Novel object recognition (NOR) task, sub-chronic PCP-induced cognitive deficit. It counts as in vivo, rat. As to conditions: 0.2 mg/kg risperidone i.p.; sub-chronic PCP rats; did not reach statistical significance; FIG. 3. From the text:
Certain pre-clinical tests allow the observation of relatively subtle cognitive deficits in the rat that resemble cognitive symptoms in subjects with schizophrenia. The cognitive deficits observed are seen in behaviours such as working memory deficits which may be measured by recognition tasks such as the novel object recognition (NOR) paradigm. A recognition memory task allows the comparison between presented stimuli and previously stored information. Ennaceur & Delacour, Behav. Brain Res. 31: 47-59 (1988) described the NOR test in rats which was based on the differential exploration of familiar and new objects. The NOR test is a non-rewarded, ethologically relevant paradigm based on the spontaneous exploratory behaviour of rats which measures working memory. Each session consists of two trials. In the first trial, the rats are exposed to two identical objects in an open field. During the second trial, rats are exposed to two dissimilar objects, one familiar object from the first trial and one new object. Object recognition in rats can be measured as the difference in time spent exploring the familiar and the new object.
The abovementioned rodent model was used to assess the effects of the Isomer A on sub-chronic PCP-induced deficits in working memory using the novel object recognition (NOR) paradigm. The working hypothesis was that both acute and sub-chronic treatment with Isomer A will attenuate the selective working memory deficit induced by sub-chronic PCP as measured in the NOR test paradigm.
Rats are allowed to habituate to the empty test box and the behavioural test room environment for 1 hour on day 1. Prior to behavioural testing on day 2 rats are given a further 3 minutes habituation.
Following the 3 minute habituation period, the rats are given two 3 minute trials (T1 and T2) which are separated by a 1 minute inter-trial interval in the home cage during which the objects are changed.
In this trial, the animals are allowed to explore two identical objects (A1 and A2) for 3 minutes.
In this trial, the animals explore a familiar object (A) from T1 and a novel object (B) for 3 minutes. The familiar object presented during T2 is a duplicate of the object presented in T1 in order to avoid any olfactory trails.
The object exploration is defined by animals licking, sniffing or touching the object with the forepaws whilst sniffing, but not leaning against, turning around, standing or sitting on the object. The exploration time (s) of each object (A1, A2, A and B) in each trial are recorded using two stopwatches and the following factors are calculated: • Total exploration time of both objects in the acquisition trial (s). • Total exploration time of both objects in the retention trial (s). • Habituation of exploratory activity. The LMA includes the exploration time, as measured by the number of lines crossed, for both the trials. • Discrimination index, which is calculated as shown below;
(time spent exploring novel object−time spent exploring familiar object)÷total time spent in exploring the objects
Behaviour in all trials was recorded on video for subsequent blind scoring.
50 female hooded-Lister rats (Harlan, UK) were used as subjects for these studies. Rats were housed in groups of 5 under standard laboratory conditions under a 12 hr light:dark cycle, lights on at 0700 hr. All testing was carried out in the light phase. Food and water were freely provided. […]

Test [2] concerns female hooded-Lister rats. As to conditions: risperidone; Grayson et al; cited from earlier work.

Take `Cc1nc2n(c(=O)c1CCN1CCC(c3noc4cc(F)ccc34)CC1)CCCC2` [risperidone, reference compound]: in test [1], the “Discrimination index (DI)” value is reported as “improved”. Further, the “Sub-chronic PCP-induced deficit in NOR paradigm” value in test [2] is on record as “efficacy of risperidone to attenuate”.

These data come from patent US20110257220A1, “3,11 b-cis-Dihydrotetrabenazine for the Treatment of Schizophrenia and Other Psychoses” (CAMBRIDGE LABORATORIES (IRELAND) LIMITED, priority 2005, published 2011).
